In PubChem BioAssay (NCI):
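Cultured in 96-well plates, cells were exposed to test compound for 48 hours across five concentrations. The concentration for 50% growth inhibition is given as GI50. TGI denotes the concentration required for complete inhibition of growth.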

Legend:
Assay in all cases: inhibition of tumour cell growth, NCI panel, 48 h
[1] = tested on: 786-0 renal
[2] = tested on: A498 renal
[3] = tested on: A549 NSCLC
[4] = tested on: ACHN renal
[5] = tested on: BT-549 breast
[6] = tested on: CAKI-1 renal
[7] = tested on: CCRF-CEM leukemia
[8] = tested on: DU-145 prostate
[9] = tested on: EKVX NSCLC
[10] = tested on: HCC-2998 colon
[11] = tested on: HCT-116 colon
[12] = tested on: HCT-15 colon
[13] = tested on: HL-60(TB) leukemia
[14] = tested on: HOP-62 NSCLC
[15] = tested on: HS 578T breast
[16] = tested on: HT29 colon
[17] = tested on: IGROV1 ovarian
[18] = tested on: K-562 leukemia
[19] = tested on: KM12 colon
[20] = tested on: M14 melanoma
[21] = tested on: MALME-3M melanoma
[22] = tested on: MCF7 breast
[23] = tested on: MDA-MB-231 breast
[24] = tested on: MDA-MB-435
[25] = tested on: MOLT-4 leukemia
[26] = tested on: NCI-H226 lung
[27] = tested on: NCI-H23 lung
[28] = tested on: NCI-H460 lung
[29] = tested on: NCI-H522 lung
[30] = tested on: NCI/ADR-RES ovarian
[31] = tested on: OVCAR-8 ovarian
[32] = tested on: PC-3 prostate
[33] = tested on: RPMI-8226 leukemia
[34] = tested on: RXF 393 renal
[35] = tested on: SF-268 CNS
[36] = tested on: SF-295 CNS
[37] = tested on: SF-539 CNS
[38] = tested on: SK-MEL-2 melanoma
[39] = tested on: SK-MEL-28 melanoma
[40] = tested on: SK-MEL-5 melanoma
[41] = tested on: SK-OV-3 ovarian
[42] = tested on: SN12C renal
[43] = tested on: SNB-19 CNS
[44] = tested on: SNB-75 CNS
[45] = tested on: SR leukemia
[46] = tested on: SW-620 colon
[47] = tested on: T-47D breast
[48] = tested on: TK-10 renal
[49] = tested on: U251 CNS
[50] = tested on: UACC-257 melanoma
[51] = tested on: UACC-62 melanoma
[52] = tested on: UO-31 renal

## NC(=O)c1c(NC(=O)c2ccccc2C(F)(F)F)sc2c1CCC(=O)C2
[1]
  GI50: 4.29 µM
  TGI: > 100 µM
[2]
  GI50: 9.93 µM
  TGI: 40.3 µM
[3]
  GI50: 3.72 µM
  TGI: > 100 µM
[4]
  GI50: 1010 nM
  TGI: 2660 nM
[5]
  GI50: 947 nM
  TGI: 76.5 µM
[6]
  GI50: 1390 nM
  TGI: 3.05 µM
[7]
  GI50: 429 nM
  TGI: > 100 µM
[8]
  GI50: 4.54 µM
  TGI: > 100 µM
[9]
  GI50: 2810 nM
  TGI: 12.1 µM
[10]
  GI50: 2880 nM
  TGI: 12.3 µM
[11]
  GI50: 493 nM
  TGI: 8.14 µM
[12]
  GI50: 493 nM
  TGI: 2070 nM
[13]
  GI50: 1100 nM
  TGI: 7.37 µM
[14]
  GI50: 3.97 µM
  TGI: > 100 µM
[15]
  GI50: 3.04 µM
  TGI: > 100 µM
[16]
  GI50: 1970 nM
  TGI: 6.65 µM
[17]
  GI50: 2460 nM
  TGI: 9.48 µM
[18]
  GI50: 412 nM
  TGI: > 100 µM
[19]
  GI50: 3.66 µM
  TGI: 14.6 µM
[20]
  GI50: 2760 nM
  TGI: 19.9 µM
[21]
  GI50: 2000 nM
  TGI: 5.25 µM
[22]
  GI50: 2240 nM
  TGI: 9.87 µM
[23]
  GI50: 1950 nM
  TGI: 4.3 µM
[24]
  GI50: 2940 nM
  TGI: 8.7 µM
[25]
  GI50: 2020 nM
  TGI: 22.3 µM
[26]
  GI50: 1970 nM
  TGI: 4.53 µM
[27]
  GI50: 1340 nM
  TGI: 5.63 µM
[28]
  GI50: 3.52 µM
  TGI: 16 µM
[29]
  GI50: 391 nM
  TGI: 1920 nM
[30]
  GI50: 2330 nM
  TGI: 18.3 µM
[31]
  GI50: 2600 nM
  TGI: > 100 µM
[32]
  GI50: 307 nM
  TGI: 4.43 µM
[33]
  GI50: 360 nM
  TGI: > 100 µM
[34]
  GI50: 1370 nM
  TGI: 3.83 µM
[35]
  GI50: 3.6 µM
  TGI: > 100 µM
[36]
  GI50: 2550 nM
  TGI: 7.71 µM
[37]
  GI50: 605 nM
  TGI: 2090 nM
[38]
  GI50: 2500 nM
  TGI: 6.84 µM
[39]
  GI50: 1890 nM
  TGI: 5.5 µM
[40]
  GI50: 1780 nM
  TGI: 3.45 µM
[41]
  GI50: 3.47 µM
  TGI: > 100 µM
[42]
  GI50: 2590 nM
  TGI: 12.6 µM
[43]
  GI50: 3.74 µM
  TGI: > 100 µM
[44]
  GI50: 1950 nM
  TGI: 8.2 µM
[45]
  GI50: 466 nM
  TGI: > 100 µM
[46]
  GI50: 402 nM
  TGI: 13.8 µM
[47]
  GI50: 492 nM
  TGI: 5.71 µM
[48]
  GI50: 3.2 µM
  TGI: > 100 µM
[49]
  GI50: 990 nM
  TGI: 19.1 µM
[50]
  GI50: 2480 nM
  TGI: 7.38 µM
[51]
  GI50: 1290 nM
  TGI: 3.19 µM
[52]
  GI50: 1120 nM
  TGI: 2330 nM
